Experiments:
Assay type in all cases: in vivo
[1] = tested on: johnsongrass (Sorghum halepense, SORHA); assay: Post-emerge test, greenhouse herbicide activity screening; conditions: rating scale 0-100 (0 no damage, 100 complete death), 14 days after application
Outline: (§1)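 Compounds in acetone were track-sprayed at 15-1000 g ai/ha (187 l/ha) on sandy loam pots: pre-emerge one day after seeding, post-emerge at 2-3 leaf stage with 0.25% v/v non-ionic surfactant. Phytotoxicity was rated 14 days later on a 0 (no damage) to 100 (complete death) scale.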

[2] = tested on: large crabgrass (Digitaria sanguinalis, DIGSA); assay: as above; conditions: rating scale 0-100 (0 no damage, 100 complete death), 14 days after application
Outline: as §1

[3] = tested on: green foxtail (Setaria viridis, SETVI); assay: as above; conditions: rating scale 0-100 (0 no damage, 100 complete death), 14 days after application
Outline: as §1

[4] = tested on: ivyleaf morningglory (Ipomoea hederacea, IPOHE); assay: as above; conditions: rating scale 0-100 (0 no damage, 100 complete death), 14 days after application
Outline: as §1

[5] = tested on: common ragweed (Ambrosia artemisizfolia L., AMBEL); assay: as above; conditions: rating scale 0-100 (0 no damage, 100 complete death), 14 days after application
Outline: as §1

[6] = tested on: velvetleaf (Abutilon theophrasti, ABUTH); assay: as above; conditions: rating scale 0-100 (0 no damage, 100 complete death), 14 days after application
Outline: as §1

[7] = tested on: sicklepod (Cassia obtusifolia, CASOB); assay: as above; conditions: rating scale 0-100 (0 no damage, 100 complete death), 14 days after application
Outline: as §1

[8] = tested on: barnyardgrass (Echinochloa crus-galli, ECHCG); assay: as above; conditions: rating scale 0-100 (0 no damage, 100 complete death), 14 days after application
Outline: as §1

[9] = tested on: redroot pigweed (Amaranthus retroflexus, AMARE); assay: as above; conditions: rating scale 0-100 (0 no damage, 100 complete death), 14 days after application
Outline: as §1

[10] = tested on: lambsquarters (Chenopodium album, CHEAL); assay: as above; conditions: rating scale 0-100 (0 no damage, 100 complete death), 14 days after application
Outline: as §1

[11] = tested on: field corn (Zea mays L., var. Dekalb 535, CORN); assay: Pre-emerge test, crop safety; conditions: rating scale 0-100, 14 days after application
Outline: (§2)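 Herbicidal damage is scored 0 (none) to 100 (complete plant death) two weeks after a simulated field spray. Rates span 15–1000 g ai/ha, delivered in acetone at 187 l/ha. For post-emergence treatments, plants have 2–3 leaves and the spray carries 0.25% v/v non-ionic surfactant.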

[12] = tested on: upland rice (Oryza sp., var. Tebonnet, RICE); assay: Pre-emerge test, crop safety; conditions: rating scale 0-100, 14 days after application
Outline: as §2

[13] = tested on: johnsongrass (Sorghum halepense, SORHA); assay: Pre-emerge test, greenhouse herbicide activity screening; conditions: rating scale 0-100, 14 days after application
Outline: (§3)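 Visual ratings on a 0-100 scale (0 no damage, 100 all plants dead) were taken at 14 days after treatment. Rates of 15-1000 g ai/ha in acetone, 187 l/ha, were sprayed onto soil one day after planting (pre-emerge) or onto 2-3 leaf plants with 0.25% v/v surfactant (post-emerge).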

[14] = tested on: large crabgrass (Digitaria sanguinalis, DIGSA); assay: as above; conditions: rating scale 0-100, 14 days after application
Outline: as §3

[15] = tested on: green foxtail (Setaria viridis, SETVI); assay: as above; conditions: rating scale 0-100, 14 days after application
Outline: as §3

[16] = tested on: ivyleaf morningglory (Ipomoea hederacea, IPOHE); assay: as above; conditions: rating scale 0-100, 14 days after application
Outline: as §3

[17] = tested on: velvetleaf (Abutilon theophrasti, ABUTH); assay: as above; conditions: rating scale 0-100, 14 days after application
Outline: as §3

[18] = tested on: sicklepod (Cassia obtusifolia, CASOB); assay: as above; conditions: rating scale 0-100, 14 days after application
Outline: as §3

[19] = tested on: barnyardgrass (Echinochloa crus-galli, ECHCG); assay: as above; conditions: rating scale 0-100, 14 days after application
Outline: as §3

[20] = tested on: lambsquarters (Chenopodium album, CHEAL); assay: as above; conditions: rating scale 0-100, 14 days after application
Outline: as §3

[21] = tested on: field corn (Zea mays L., var. Dekalb 535, CORN); assay: Post-emerge test, crop safety; conditions: rating scale 0-100 (0 no damage, 100 complete death), 14 days after application
Outline: as §3

[22] = tested on: upland rice (Oryza sp., var. Tebonnet, RICE); assay: Post-emerge test, crop safety; conditions: rating scale 0-100 (0 no damage, 100 complete death), 14 days after application
Outline: as §3

[23] = tested on: redroot pigweed (Amaranthus retroflexus, AMARE); assay: Pre-emerge test, greenhouse herbicide activity screening; conditions: rating scale 0-100, 14 days after application
Outline: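 Compounds in acetone were track-sprayed at 187 l/ha, 15–1000 g ai/ha, onto sandy loam pots. Pre-emerge seeds were sown one day before spraying, with surface watering afterwards. Post-emerge plants were at the 2–3 leaf stage and sprayed with 0.25% v/v non-ionic surfactant. Injury was rated 0–100 at 14 days.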

For `COc1c(Cl)cc(F)c(-n2c(=O)cc(C(F)(F)F)n(C)c2=O)c1CC(Cl)C(=O)OCC(F)(F)C(F)(F)C(F)(F)F` (single isomer, unassigned) [14-23], the “Post-emerge Herbicidal Activity, phytotoxicity rating SORHA” value ([1]; Rate 63 g ai/ha) was 40, the “Post-emerge Herbicidal Activity, phytotoxicity rating SORHA” value ([1]; Rate 250 g ai/ha) was 50 and the “Post-emerge Herbicidal Activity, phytotoxicity rating DIGSA” value ([2]; Rate 63 g ai/ha) was 50. For the same molecule, the “Post-emerge Herbicidal Activity, phytotoxicity rating DIGSA” value ([2]; Rate 250 g ai/ha) was 95, the “Post-emerge Herbicidal Activity, phytotoxicity rating SETVI” value ([3]; Rate 63 g ai/ha) was 60 and the “Post-emerge Herbicidal Activity, phytotoxicity rating SETVI” value ([3]; Rate 250 g ai/ha) was 70. For the same molecule, the “Post-emerge Herbicidal Activity, phytotoxicity rating IPOHE” value ([4]; Rate 63 g ai/ha) was 80, the “Post-emerge Herbicidal Activity, phytotoxicity rating IPOHE” value ([4]; Rate 250 g ai/ha) was 95 and the “Post-emerge Herbicidal Activity, phytotoxicity rating AMBEL” value ([5]; Rate 63 g ai/ha) was 50. For the same molecule, the “Post-emerge Herbicidal Activity, phytotoxicity rating AMBEL” value ([5]; Rate 250 g ai/ha) was 40, the “Post-emerge Herbicidal Activity, phytotoxicity rating ABUTH” value ([6]; Rate 63 g ai/ha) was 50 and the “Post-emerge Herbicidal Activity, phytotoxicity rating ABUTH” value ([6]; Rate 250 g ai/ha) was 90. For the same molecule, the “Post-emerge Herbicidal Activity, phytotoxicity rating CASOB” value ([7]; Rate 63 g ai/ha) was 20, the “Post-emerge Herbicidal Activity, phytotoxicity rating CASOB” value ([7]; Rate 250 g ai/ha) was 70 and the “Post-emerge Herbicidal Activity, phytotoxicity rating ECHCG” value ([8]; Rate 63 g ai/ha) was 100. For the same molecule, the “Post-emerge Herbicidal Activity, phytotoxicity rating ECHCG” value ([8]; Rate 250 g ai/ha) was 100, the “Post-emerge Herbicidal Activity, phytotoxicity rating AMARE” value ([9]; Rate 63 g ai/ha) was 50 and the “Post-emerge Herbicidal Activity, phytotoxicity rating AMARE” value ([9]; Rate 250 g ai/ha) was 100. For the same molecule, the “Post-emerge Herbicidal Activity, phytotoxicity rating CHEAL” value ([10]; Rate 63 g ai/ha) was 50, the “Post-emerge Herbicidal Activity, phytotoxicity rating CHEAL” value ([10]; Rate 250 g ai/ha) was 80 and the “Pre-emerge phytotoxicity rating, crop damage CORN” value ([11]; 63 g ai/ha) was 0. For the same molecule, the “Pre-emerge phytotoxicity rating, crop damage CORN” value ([11]; 250 g ai/ha) was 0, the “Pre-emerge phytotoxicity rating, crop damage RICE” value ([12]; 63 g ai/ha) was 0 and the “Pre-emerge phytotoxicity rating, crop damage RICE” value ([12]; 250 g ai/ha) was 0. The “Pre-emerge herbicidal activity, phytotoxicity rating SORHA” value ([13]; 63 g ai/ha) was 0, the “Pre-emerge herbicidal activity, phytotoxicity rating SORHA” value ([13]; 250 g ai/ha) was 80 and the “Pre-emerge herbicidal activity, phytotoxicity rating DIGSA” value ([14]; 63 g ai/ha) was 30. For the same molecule, the “Pre-emerge herbicidal activity, phytotoxicity rating DIGSA” value ([14]; 250 g ai/ha) was 90, the “Pre-emerge herbicidal activity, phytotoxicity rating SETVI” value ([15]; 63 g ai/ha) was 0 and the “Pre-emerge herbicidal activity, phytotoxicity rating SETVI” value ([15]; 250 g ai/ha) was 40. The “Pre-emerge herbicidal activity, phytotoxicity rating IPOHE” value ([16]; 63 g ai/ha) was 0, the “Pre-emerge herbicidal activity, phytotoxicity rating IPOHE” value ([16]; 250 g ai/ha) was 30 and the “Pre-emerge herbicidal activity, phytotoxicity rating ABUTH” value ([17]; 63 g ai/ha) was 0. For the same molecule, the “Pre-emerge herbicidal activity, phytotoxicity rating ABUTH” value ([17]; 250 g ai/ha) was 80, the “Pre-emerge herbicidal activity, phytotoxicity rating CASOB” value ([18]; 63 g ai/ha) was 0 and the “Pre-emerge herbicidal activity, phytotoxicity rating CASOB” value ([18]; 250 g ai/ha) was 0. For the same molecule, the “Pre-emerge herbicidal activity, phytotoxicity rating ECHCG” value ([19]; 63 g ai/ha) was 10, the “Pre-emerge herbicidal activity, phytotoxicity rating ECHCG” value ([19]; 250 g ai/ha) was 30 and the “Pre-emerge herbicidal activity, phytotoxicity rating CHEAL” value ([20]; 63 g ai/ha) was 0. The “Pre-emerge herbicidal activity, phytotoxicity rating CHEAL” value ([20]; 250 g ai/ha) was 90, the “Post-emerge phytotoxicity rating CORN (crop damage)” value ([21]; Rate 63 g ai/ha) was 0 and the “Post-emerge phytotoxicity rating CORN (crop damage)” value ([21]; Rate 250 g ai/ha) was 40. The “Post-emerge phytotoxicity rating RICE (crop damage)” value ([22]; Rate 63 g ai/ha) was 0, the “Post-emerge phytotoxicity rating RICE (crop damage)” value ([22]; Rate 250 g ai/ha) was 20 and the “Pre-emerge herbicidal activity, phytotoxicity rating AMARE” value ([23]; 63 g ai/ha) was 95. For the same molecule, the “Pre-emerge herbicidal activity, phytotoxicity rating AMARE” value ([23]; 250 g ai/ha) was 100.

Source: patent US6355799B1, “Substituted benzene compounds, process for their preparation, and herbicidal and defoliant compositions containing them” (ISK Americas Incorporated, priority 1997, dated 2002)
